Experimental data reported in ChEMBL document CHEMBL4190263, “Bacterial Production of a Pederin Analogue by a Free-Living Marine Alphaproteobacterium” (2017).

Legend:
Format in all cases: functional
PSN1 = test: Antiproliferative activity against human PSN1 cells assessed as growth inhibition after 72 hrs by SRB assay; details: PSN1, 72 h
HT-29 = test: Antiproliferative activity against human HT-29 cells assessed as growth inhibition after 72 hrs by SRB assay; details: HT-29, 72 h
MDA-MB-231 = test: Antiproliferative activity against human MDA-MB-231 cells assessed as growth inhibition after 72 hrs by SRB assay; details: MDA-MB-231, 72 h
A549 = test: Antiproliferative activity against human A549 cells assessed as growth inhibition after 72 hrs by SRB assay; details: A549, 72 h

Measured: GI50

C=C1C[C@](OC)([C@H](O)C(=O)N[C@@H](OC)[C@@H]2C[C@@H](O)C(C)(C)[C@@H](C[C@@H](CO)OC)O2)O[C@H](C)[C@@H]1C
2 to 2.9 nM: PSN1 | HT-29 | MDA-MB-231 | A549
